According to US10196390B2, “TYK2 inhibitors and uses thereof” (Nimbus Lakshmi, Inc., priority 2014, dated 2019):
Read-outs that look alike come from different tables or passages of the source.

Experiments:
IL-12 induced IFNγ = assay: Ex vivo mouse IL-12 induced IFNγ studies; format: in vivo, C57/BL6 mice; details: ex vivo mouse model, doses of ≤10 mg/kg
Protocol: C57/BL6 mice were given a single oral dose of either vehicle or different doses of compound at a volume of 10 mL/kg. 30 minutes to 1 hour after dosing, animals were euthanized and blood was collected via vena cava into sodium heparin blood collection tubes and inverted several times. Blood was then plated on anti-CD3 coated plates and stimulated with 2 ng/ml of mouse IL-12 in RPMI media for 24 hours at 37° C. in humidified incubator with 5% CO2. At the end of the incubation, blood was centrifuged at 260 g for 5 minutes to collect supernatant. IFNγ concentration in the supernatant was determined with mouse IFNγ MSD kit per manufacture's instruction (Meso Scale Discovery). At the time of the blood collection, plasma was collected for drug level analysis by LC-MS/MS.

Tyk2-pSTAT4 = assay: IL-12 induced pSTAT4 in human PBMC; format: cell-based; details: read-out: Tyk2-pSTAT4 EC50
Summary of the method: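 PBMC (200,000 cells/well) in serum-containing medium were preincubated with compound for 1 hr at 37 C, final DMSO 0.1%. Stimulation with 1.7 ng/mL IL-12 (final) for 30 minutes. pSTAT4 and total STAT4 were measured in lysates by MSD.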

JAK2-pSTAT5 = assay: GM-CSF induced pSTAT5 in human PBMC; format: cell-based; details: read-out: JAK2-pSTAT5 EC50
Protocol: Human PBMC are isolated from buffy coat and are stored frozen for assays as needed. […] 15 μl of compound or DMSO is added to the well at the desired concentrations and incubated at 1 hr at 37 C. 15 μl of stimulus (final concentration of 1.7 ng/mL IL-12) is added for 30 minutes prior to pSTAT4 and total STAT4 analysis using cell lysates prepared and analyzed by MSD reagents as per manufacturer protocol. The final DMSO concentration of compound in the assay is 0.1%.
Cells are prepared for analysis as in the above procedure and 15 μl of GM-CSF (final concentration 5 ng/mL) is added for 20 minutes prior to pSTAT5 and total STAT5 analysis using cell lysates prepared and analyzed by MSD reagents as per manufacturer protocol. The final DMSO concentration of compound in the assay is 0.1%.

TYK2 = TYK2 (Homo sapiens (Human), UniProt P29597); assay: Tyk2 activity inhibition assay (radioactive kinase assay / Caliper assay); format: biochemical
Sequence of TYK2 (P29597 whole entry): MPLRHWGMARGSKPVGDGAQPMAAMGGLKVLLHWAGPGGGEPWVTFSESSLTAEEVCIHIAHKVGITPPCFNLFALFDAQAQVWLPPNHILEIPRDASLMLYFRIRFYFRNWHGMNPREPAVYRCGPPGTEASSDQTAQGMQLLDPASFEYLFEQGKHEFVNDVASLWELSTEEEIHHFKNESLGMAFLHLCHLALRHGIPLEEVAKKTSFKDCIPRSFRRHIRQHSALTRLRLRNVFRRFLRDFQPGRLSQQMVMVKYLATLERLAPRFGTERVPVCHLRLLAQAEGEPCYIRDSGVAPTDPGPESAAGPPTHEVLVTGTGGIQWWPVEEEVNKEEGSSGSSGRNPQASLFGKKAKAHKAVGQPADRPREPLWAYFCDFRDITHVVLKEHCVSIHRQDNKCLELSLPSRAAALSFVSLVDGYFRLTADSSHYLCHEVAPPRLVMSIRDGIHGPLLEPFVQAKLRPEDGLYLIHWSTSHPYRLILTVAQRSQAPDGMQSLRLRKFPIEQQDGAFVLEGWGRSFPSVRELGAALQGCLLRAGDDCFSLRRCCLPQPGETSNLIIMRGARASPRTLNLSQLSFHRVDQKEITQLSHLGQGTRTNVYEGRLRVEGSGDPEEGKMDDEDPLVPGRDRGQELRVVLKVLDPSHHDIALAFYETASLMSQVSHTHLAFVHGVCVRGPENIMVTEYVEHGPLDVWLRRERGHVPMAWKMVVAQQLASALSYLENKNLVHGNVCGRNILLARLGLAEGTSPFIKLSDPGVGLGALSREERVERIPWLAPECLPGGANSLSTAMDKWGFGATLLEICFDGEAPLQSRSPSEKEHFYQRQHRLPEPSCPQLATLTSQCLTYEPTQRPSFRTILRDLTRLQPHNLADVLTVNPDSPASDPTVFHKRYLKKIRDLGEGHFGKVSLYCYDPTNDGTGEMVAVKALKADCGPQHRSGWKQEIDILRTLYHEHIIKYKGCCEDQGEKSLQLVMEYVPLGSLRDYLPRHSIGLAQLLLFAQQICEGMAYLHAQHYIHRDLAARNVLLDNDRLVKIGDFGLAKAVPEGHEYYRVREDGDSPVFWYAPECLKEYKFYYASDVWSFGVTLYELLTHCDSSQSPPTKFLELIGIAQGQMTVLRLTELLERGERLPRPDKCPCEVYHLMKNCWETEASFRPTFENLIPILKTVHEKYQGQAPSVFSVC
Summary of the method: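 Radiometric format: TYK2 with peptide substrate (20 μM) and 33P-ATP at 10 μM in HEPES pH 7.5, 1% DMSO, 120 min at room temp, P81 paper capture. Caliper mobility-shift format: TYK2 9.75 nM, peptide 30 at 3 uM, ATP 16 uM (also 1 mM), 25 min at 28° C.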

JAK2 = JAK2 (Homo sapiens (Human), UniProt O60674); assay: JAK2 activity inhibition assay (radioactive kinase assay / Caliper assay); format: biochemical; details: read-out: JAK2 Ki
Sequence of JAK2 (O60674 whole entry): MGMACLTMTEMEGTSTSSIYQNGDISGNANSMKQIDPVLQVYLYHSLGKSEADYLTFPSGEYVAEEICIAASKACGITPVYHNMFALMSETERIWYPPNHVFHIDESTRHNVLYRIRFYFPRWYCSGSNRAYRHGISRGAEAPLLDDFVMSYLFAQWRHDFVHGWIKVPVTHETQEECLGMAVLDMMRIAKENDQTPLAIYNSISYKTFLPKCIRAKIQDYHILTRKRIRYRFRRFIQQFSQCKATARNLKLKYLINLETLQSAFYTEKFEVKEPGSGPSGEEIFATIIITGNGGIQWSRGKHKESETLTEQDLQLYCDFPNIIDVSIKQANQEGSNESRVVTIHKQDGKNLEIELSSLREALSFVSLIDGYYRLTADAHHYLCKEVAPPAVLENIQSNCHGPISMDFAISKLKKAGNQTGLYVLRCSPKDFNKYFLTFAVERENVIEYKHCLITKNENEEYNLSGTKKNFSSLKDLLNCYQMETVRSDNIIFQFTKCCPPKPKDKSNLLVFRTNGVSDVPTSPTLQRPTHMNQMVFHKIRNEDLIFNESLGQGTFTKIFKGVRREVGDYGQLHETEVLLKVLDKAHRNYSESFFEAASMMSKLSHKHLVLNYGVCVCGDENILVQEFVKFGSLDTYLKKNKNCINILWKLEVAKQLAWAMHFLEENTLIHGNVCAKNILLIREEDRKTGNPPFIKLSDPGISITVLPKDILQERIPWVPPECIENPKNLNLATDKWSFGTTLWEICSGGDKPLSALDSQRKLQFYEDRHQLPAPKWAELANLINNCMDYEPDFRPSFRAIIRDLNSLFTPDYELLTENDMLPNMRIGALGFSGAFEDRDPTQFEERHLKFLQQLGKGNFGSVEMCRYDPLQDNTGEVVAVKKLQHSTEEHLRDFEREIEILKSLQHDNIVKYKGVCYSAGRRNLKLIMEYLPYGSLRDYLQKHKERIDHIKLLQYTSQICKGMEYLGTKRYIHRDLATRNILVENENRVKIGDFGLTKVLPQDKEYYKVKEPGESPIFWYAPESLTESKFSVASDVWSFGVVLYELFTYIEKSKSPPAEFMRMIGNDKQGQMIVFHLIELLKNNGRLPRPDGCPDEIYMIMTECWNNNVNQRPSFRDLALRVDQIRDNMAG
Summary of the method: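 Mobility-shift (Caliper) read-out of phosphorylated peptide substrate. Compound diluted in 25 mM HEPES pH 7.5, 0.01% Brij-35, 0.01% Triton, 0.5 mM EGTA; enzyme added, then peptide plus ATP in 10 mM MgCl2. Incubated 25 min at 28° C, stopped with EDTA buffer.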

[1] = IL-12 induced pSTAT4, human PBMC
[2] = GM-CSF induced pSTAT5, human PBMC

Row | SMILES | Ki (TYK2) | Ki (JAK2) | EC50 (Tyk2-pSTAT4; [1]) | EC50 (JAK2-pSTAT5; [2]) | IL-12 induced IFNγ production (IL-12 induced IFNγ) | EC50 (Tyk2-pSTAT4; Homo sapiens, PBMC) | EC50 (JAK2-pSTAT5; Homo sapiens, PBMC)
1 | CCNC(=O)c1ccc(Nc2cc(-c3c(F)cccc3F)nc3c2C(=O)NC3)nc1 [Compound I-136, 6-((2-(2,6-difluorophenyl)-5-oxo-6,7-dihydro-5H-pyrrolo[3,4-b]pyridin-4-yl)amino)-N-ethylnicotinamide] | < 0.01 µM | 0.01 to 0.1 µM |  |  | significantly inhibit | < 2 µM | < 2 µM
2 | CN1CCN(c2ccc(Nc3cc(-c4c(F)cccc4F)nc4c3C(=O)NC4)nc2)CC1 [Compound I-163, 2-(2,6-difluorophenyl)-4-((5-(4-methylpiperazin-1-yl)pyridin-2-yl)amino)-6,7-dihydro-5H-pyrrolo[3,4-b]pyridin-5-one] | < 0.01 µM | 0.01 to 0.1 µM | < 2 µM | 2 to 20 µM |  |  | 
3 | COc1ccc(Nc2cc(-c3c(F)cccc3F)nc3c2C(=O)NC3)nc1 [Compound I-167, 2-(2,6-difluorophenyl)-4-((5-methoxypyridin-2-yl)amino)-6,7-dihydro-5H-pyrrolo[3,4-b]pyridin-5-one] | < 0.01 µM | 0.1 to 1 µM | < 2 µM | > 20 µM |  |  | 
4 | COc1ccc(Nc2cc(-c3c(F)cccc3F)nc3c2C(=O)NC3)nc1OC [Compound I-170, 2-(2,6-difluorophenyl)-4-((5,6-dimethoxypyridin-2-yl)amino)-6,7-dihydro-5H-pyrrolo[3,4-b]pyridin-5-one] | < 0.01 µM | 0.01 to 0.1 µM | < 2 µM | 2 to 20 µM |  |  | 
5 | O=C1NCc2nc(-c3c(F)cccc3F)cc(Nc3ccc(N4CCOCC4)cn3)c21 [Compound I-171, 2-(2,6-difluorophenyl)-4-((5-morpholinopyridin-2-yl)amino)-6,7-dihydro-5H-pyrrolo[3,4-b]pyridin-5-one] | < 0.01 µM | 0.01 to 0.1 µM | < 2 µM | 2 to 20 µM |  |  | 
6 | C[C@H](C(=O)N1CCCCC1)c1ccc(Nc2nc(-c3c(F)cccc3F)nc3c2C(=O)NC3)cc1 [Compound I-206, (S)-2-(2,6-difluorophenyl)-4-((4-(1-oxo-1-(piperidin-1-yl)propan-2-yl)phenyl)amino)-6,7-dihydro-5H-pyrrolo[3,4-d]pyrimidin-5-one] | < 0.01 µM | 0.1 to 1 µM |  |  |  | < 2 µM | > 20 µM
7 | C[C@@H](C(=O)N1CCCCC1)c1ccc(Nc2nc(-c3c(F)cccc3F)nc3c2C(=O)NC3)cc1 [Compound I-207, (R)-2-(2,6-difluorophenyl)-4-((4-(1-oxo-1-(piperidin-1-yl)propan-2-yl)phenyl)amino)-6,7-dihydro-5H-pyrrolo[3,4-d]pyrimidin-5-one] | < 0.01 µM | 0.1 to 1 µM |  |  |  | < 2 µM | 2 to 20 µM
8 | O=C1NCc2nc(-c3c(F)cccc3F)cc(Nc3ccc(N4CC(O)C4)cn3)c21 [Compound I-214, 2-(2,6-difluorophenyl)-4-((5-(3-hydroxyazetidin-1-yl)pyridin-2-yl)amino)-6,7-dihydro-5H-pyrrolo[3,4-b]pyridin-5-one] | < 0.01 µM | 0.01 to 0.1 µM | < 2 µM | 2 to 20 µM |  |  | 
9 | O=C1NCc2nc(-c3c(F)cccc3F)cc(Nc3ccc(C(=O)N4CCOCC4)cc3)c21 [Compound I-231, 2-(2,6-difluorophenyl)-4-((4-(morpholine-4-carbonyl)-phenyl)amino)-6,7-dihydro-5H-pyrrolo[3,4-b]pyridin-5-one] | < 0.01 µM | 0.01 to 0.1 µM |  | 2 to 20 µM |  | < 2 µM | 
10 | CC(C)NC(=O)c1ccc(Nc2cc(-c3c(F)cccc3F)nc3c2C(=O)NC3)cc1 [Compound I-232, 4-((2-(2,6-difluorophenyl)-5-oxo-6,7-dihydro-5H-pyrrolo[3,4-b]pyridin-4-yl)amino)-N-isopropylbenzamide] | < 0.01 µM | 0.01 to 0.1 µM |  |  |  | < 2 µM | 2 to 20 µM
11 | CC(=O)Nc1ccc(Nc2cc(-c3c(F)cccc3F)nc3c2C(=O)NC3)nc1 [Compound I-237, N-(6-((2-(2,6-difluorophenyl)-5-oxo-6,7-dihydro-5H-pyrrolo[3,4-b]pyridin-4-yl)amino)pyridin-3-yl)acetamide] | < 0.01 µM | 0.01 to 0.1 µM | < 2 µM | > 20 µM |  |  | 
12 | C[C@@H]1COC[C@@H](C)N1c1ccc(Nc2cc(-c3c(F)cccc3F)nc3c2C(=O)NC3)nc1 [Compound I-263, 2-(2,6-difluorophenyl)-4-((5-((3R,5R)-3,5-dimethylmorpholino)pyridin-2-yl)amino)-6,7-dihydro-5H-pyrrolo[3,4-b]pyridin-5-one] | < 0.01 µM | < 0.01 µM | < 2 µM | < 2 µM |  |  | 
13 | O=C1NCc2nc(-c3c(F)cccc3F)cc(Nc3ccc(NC4CCC4)cn3)c21 [Compound I-276, 4-((5-(cyclobutylamino)pyridin-2-yl)amino)-2-(2,6-difluoro-phenyl)-6,7-dihydro-5H-pyrrolo[3,4-b]pyridin-5-one] | < 0.01 µM | 0.01 to 0.1 µM | < 2 µM | < 2 µM |  |  | 

Now from value to compound, other results behind:

Row | Ki (TYK2) | Ki (JAK2) | EC50 (Tyk2-pSTAT4; [1]) | EC50 (JAK2-pSTAT5; [2]) | SMILES | IL-12 induced IFNγ production (IL-12 induced IFNγ) | EC50 (Tyk2-pSTAT4; Homo sapiens, PBMC) | EC50 (JAK2-pSTAT5; Homo sapiens, PBMC)
14 | < 0.01 µM | 0.1 to 1 µM | < 2 µM | > 20 µM | O=C1NCc2nc(-c3c(F)cccc3F)nc(Nc3ccc([C@H]4CCCNC4=O)cc3)c21 [Compound I-154, (R)-2-(2,6-difluorophenyl)-4-((4-(2-oxopiperidin-3-yl)phenyl)amino)-6,7-dihydro-5H-pyrrolo[3,4-d]pyrimidin-5-one] |  |  | 
15 | < 0.01 µM | 0.1 to 1 µM | < 2 µM | 2 to 20 µM | CC(C)(O)CN1CCC(c2ccc(Nc3nc(-c4c(F)cccc4F)nc4c3C(=O)NC4)cc2)C1=O (stereo not drawn) [Compound I-161, 2-(2,6-difluorophenyl)-4-((4-(1-(2-hydroxy-2-methylpropyl)-2-oxopyrrolidin-3-yl)phenyl)amino)-6,7-dihydro-5H-pyrrolo[3,4-d]pyrimidin-5-one] |  |  | 
16 | < 0.01 µM | 0.01 to 0.1 µM | < 2 µM | 2 to 20 µM | CC(C)(C)NC(=O)c1ccc(Nc2cc(-c3c(F)cccc3F)nc3c2C(=O)NC3)nc1 [Compound I-165, N-(tert-butyl)-6-((2-(2,6-difluorophenyl)-5-oxo-6,7-dihydro-5H-pyrrolo[3,4-b]pyridin-4-yl)amino)nicotinamide] | significantly inhibit |  | 
17 | < 0.01 µM | 0.01 to 0.1 µM | < 2 µM | 2 to 20 µM | O=C1NCc2nc(-c3c(F)cccc3F)cc(Nc3ccc(N4CCC(F)(F)CC4)cn3)c21 [Compound I-182, 2-(2,6-difluorophenyl)-4-((5-(4,4-difluoropiperidin-1-yl)pyridin-2-yl)amino)-6,7-dihydro-5H-pyrrolo[3,4-b]pyridin-5-one] |  |  | 
18 | < 0.01 µM | 0.1 to 1 µM | < 2 µM | > 20 µM | CC(C)(C(=O)N1CCCC1)c1ccc(Nc2nc(-c3c(F)cccc3F)nc3c2C(=O)NC3)cc1 [Compound I-196, 2-(2,6-difluorophenyl)-4-((4-(2-methyl-1-oxo-1-(pyrrolidin-1-yl)propan-2-yl)phenyl)amino)-6,7-dihydro-5H-pyrrolo[3,4-d]pyrimidin-5-one] |  |  | 
19 | < 0.01 µM | < 0.01 µM | < 2 µM | < 2 µM | CC(C)(C)N1CCN(c2ccc(Nc3cc(-c4c(F)cccc4F)nc4c3C(=O)NC4)nc2)CC1 [Compound I-227, 4-((5-(4-(tert-butyl)piperazin-1-yl)pyridin-2-yl)amino)-2-(2,6-difluorophenyl)-6,7-dihydro-5H-pyrrolo[3,4-b]pyridin-5-one] |  |  | 
